What was measured:
Test in all cases: combination Emax (second highest fraction inhibited in the dose matrix, 72 h); higher = more inhibition; extreme values may be limits of the assay
A101D (Melanoma) = system: A101D (Melanoma)
Summary of the method: (§1)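 Cell lines in DMEM/F12 or RPMI with 10% FBS were plated in 1536-well plates, held 24 hours at 37°C, 5% CO2, then given two-drug dose matrices for 72 hours (DMSO typically 0.2%). Viability was read by CellTiter-Glo 2.0 luminescence and scaled as inhibition from 0 (vehicle wells) to 1 (blank wells). Combination Emax is the second-highest inhibition in the matrix; Bliss excess is observed combination effect minus expected EA + EB − EA·EB, EA and EB being single-agent effects.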

A204 (Rhabdomyosarcoma) = system: A204 (Rhabdomyosarcoma)
Summary of the method: as §1

AU565 (Breast Carcinoma) = system: AU565 (Breast Carcinoma)
Summary of the method: as §1

[1] = system: CAL-27 (Oral Cavity Carcinoma)
Summary of the method: as §1

COLO-792 (Melanoma) = system: COLO-792 (Melanoma)
Summary of the method: as §1

[2] = system: DMS-53 (Small Cell Lung Carcinoma)
Summary of the method: as §1

[3] = system: EPLC-272H (Other Solid Carcinomas)
Summary of the method: as §1

[4] = system: ESO26 (Esophageal Adenocarcinoma)
Summary of the method: as §1

[5] = system: GA-10 (Burkitt's Lymphoma)
Summary of the method: as §1

[6] = system: GCT (Other Solid Carcinomas)
Summary of the method: as §1

[7] = system: HCC1428 (Breast Carcinoma)
Summary of the method: as §1

[8] = system: JIMT-1 (Breast Carcinoma)
Summary of the method: as §1

[9] = system: JVM-2 (B-Cell Non-Hodgkin's Lymphoma)
Summary of the method: as §1

[10] = system: KYSE-140 (Esophageal Squamous Cell Carcinoma)
Summary of the method: as §1

NB13 (Neuroblastoma) = system: NB13 (Neuroblastoma)
Summary of the method: as §1

[11] = system: NCI-H2228 (Lung Adenocarcinoma)
Summary of the method: as §1

[12] = system: NCI-H716 (Colorectal Carcinoma)
Summary of the method: as §1

RH-41 (Rhabdomyosarcoma) = system: RH-41 (Rhabdomyosarcoma)
Summary of the method: as §1

[13] = system: TE-10 (Esophageal Squamous Cell Carcinoma)
Summary of the method: as §1

[14] = system: UACC-812 (Breast Carcinoma)
Summary of the method: as §1

SMILES | combination Emax (A101D (Melanoma)) | combination Emax (A204 (Rhabdomyosarcoma)) | combination Emax (AU565 (Breast Carcinoma)) | combination Emax [1] | combination Emax (COLO-792 (Melanoma)) | combination Emax [2] | combination Emax [3] | combination Emax [4] | combination Emax [5] | combination Emax [6] | combination Emax [7] | combination Emax [8] | combination Emax [9] | combination Emax [10] | combination Emax (NB13 (Neuroblastoma)) | combination Emax [11] | combination Emax [12] | combination Emax (RH-41 (Rhabdomyosarcoma)) | combination Emax [13] | combination Emax [14]
CN(CCO)CC[C@H](CSc1ccccc1)Nc1ccc(S(=O)(=O)NC(=O)c2ccc(N3CCC([C@@H](O)c4ccccc4-c4ccc(Cl)cc4)CC3)cc2)cc1S(=O)(=O)C(F)(F)F [AZD4320] + Cc1cc2ncnn2cc1Nc1ncc2c(n1)n(C1CCOCC1)c(=O)n2C [AZD7648] (first compound max 1 µM, 7x7, partner max 10 µM) | 0.452 | 0.273 | 0.327 | 0.0955 | 0.9 | 0.977 | 0.525 | 0.0775 | 0.643 | 0.25 | 0.584 | 0.225 | 0.642 | 0.203 | 1 | 0.296 | 0.209 | 0.91 | 0.202 | 0.15
Cc1cc2ncnn2cc1Nc1ncc2c(n1)n(C1CCOCC1)c(=O)n2C [AZD7648] + CCN(CCO)CCCOc1ccc2c(Nc3cc(CC(=O)Nc4cccc(F)c4)[nH]n3)ncnc2c1 [AZD2811] (first compound max 10 µM, 7x7, partner max 1 µM) | 0.39 | 0.467 | 0.366 | 0.583 | 0.46 | 0.165 | 0.496 | 0 | 0.852 | 0.312 | 0.326 | 0.348 | 0.7 | 0.353 | 0.518 | 0.434 | 0.336 | 0.329 | 0.335 | 0.242
CN(CCO)CC[C@H](CSc1ccccc1)Nc1ccc(S(=O)(=O)NC(=O)c2ccc(N3CCC([C@@H](O)c4ccccc4-c4ccc(Cl)cc4)CC3)cc2)cc1S(=O)(=O)C(F)(F)F [AZD4320] + C[C@@H](Nc1cc(F)cc(F)c1)c1cc(C(=O)N(C)C)cc2c(=O)cc(N3CCOCC3)oc12 [AZD8186] (first compound max 1 µM, 7x7, partner max 3 µM) | 0.781 | 0.451 | 0.364 | 0.659 | 0.939 | 0.991 | 0.602 | 0.325 | 0.85 | 0.442 | 0.525 | 0.316 | 0.892 | 0.401 | 1 | 0.329 | 0.285 | 0.941 | 0.618 | 
Cc1cc2ncnn2cc1Nc1ncc2c(n1)n(C1CCOCC1)c(=O)n2C [AZD7648] + CN(C)CCCOc1ccc(-c2ccc3ncc4c(c3c2)n(C2CCOCC2)c(=O)n4C)cn1 [AZD0156] (first compound max 10 µM, 7x7, partner max 1 µM) | 0.374 | 0.384 | 0.593 | 0.222 | 0.351 | 0.139 | 0.458 | 0 | 0.446 | 0.343 | 0.238 | 0.348 | 0.622 | 0.216 | 0.303 | 0.407 | 0.251 | 0.282 | 0.292 | 0.288
Cc1cc2ncnn2cc1Nc1ncc2c(n1)n(C1CCOCC1)c(=O)n2C [AZD7648] + O=C(c1cc(Cc2n[nH]c(=O)c3ccccc23)ccc1F)N1CCN(C(=O)C2CC2)CC1 [Olaparib] (first compound max 10 µM, 7x7, partner max 10 µM) | 0.261 | 0.246 | 0.213 | 0.347 | 0.347 | 0.128 | 0.53 | 0.155 | 0.569 | 0.243 | 0.147 | 0.252 | 0.624 | 0.197 | 0.263 | 0.353 | 0.258 | 0.345 | 0.233 | 0.177
Cc1cc2ncnn2cc1Nc1ncc2c(n1)n(C1CCOCC1)c(=O)n2C [AZD7648] + C[C@@H]1COCCN1C2=NC(=NC(=C2)C3(CC3)[S@](=N)(=O)C)C4=C5C=CNC5=NC=C4 [AZD6738] (first compound max 10 µM, 7x7, partner max 10 µM) | 0.778 | 0.439 | 0.416 | 0.431 | 0.386 | 0.153 | 0.879 | 0.234 | 0.981 | 0.245 | 0.201 | 0.788 | 0.842 | 0.927 | 0.919 | 0.514 | 0.539 | 0.705 | 0.887 | 0.267
CN(CCO)CC[C@H](CSc1ccccc1)Nc1ccc(S(=O)(=O)NC(=O)c2ccc(N3CCC([C@@H](O)c4ccccc4-c4ccc(Cl)cc4)CC3)cc2)cc1S(=O)(=O)C(F)(F)F [AZD4320] + C1CN(CCC1(C(=O)N[C@@H](CCO)C2=CC=C(C=C2)Cl)N)C3=NC=NC4=C3C=CN4 [Capivasertib] (first compound max 1 µM, 7x7, partner max 3 µM) | 0.429 | 0.266 | 0.413 | 0.191 | 0.78 | 0.965 | 0.642 | 0.345 | 0.586 | 0.449 | 0.446 | 0.2 | 0.702 | 0.664 | 1 | 0.329 | 0.393 | 1 | 0.231 | 0.226
COc1cc2c(cc1OCCCCCOc1cc3c(cc1OC)C(=O)N1C=C(C)C[C@H]1C=N3)N=C[C@@H]1CC(C)=CN1C2=O [SG3199] + O=C(c1cc(Cc2n[nH]c(=O)c3ccccc23)ccc1F)N1CCN(C(=O)C2CC2)CC1 [Olaparib] (first compound max 0.001 µM, 7x7, partner max 10 µM) | 0.214 | 0.178 | 0.138 | 0.288 | 0.109 | 0.153 | 0.123 | 0.272 | 0.324 | 0.204 | 0.0458 | 0.139 | 0.466 | 0.0926 | 0.213 | 0.115 | 0.233 | 0.245 | 0.107 | 0.134
Cc1cc2ncnn2cc1Nc1ncc2c(n1)n(C1CCOCC1)c(=O)n2C [AZD7648] + C=CCn1c(=O)c2cnc(Nc3ccc(N4CCN(C)CC4)cc3)nc2n1-c1cccc(C(C)(C)O)n1 [AZD1775] (first compound max 10 µM, partner max 1 µM) | 0.762 | 0.43 | 0.547 | 0.345 | 0.558 | 0.204 | 0.832 | 0.466 | 0.988 | 0.452 | 0.238 | 0.721 | 0.899 | 0.838 | 0.91 | 0.561 | 0.487 | 0.927 | 0.86 | 0.209
CN(CCO)CC[C@H](CSc1ccccc1)Nc1ccc(S(=O)(=O)NC(=O)c2ccc(N3CCC([C@@H](O)c4ccccc4-c4ccc(Cl)cc4)CC3)cc2)cc1S(=O)(=O)C(F)(F)F [AZD4320] + Cn1cnc2c(F)c(Nc3ccc(Br)cc3Cl)c(C(=O)NOCCO)cc21 [Selumetinib] (first compound max 1 µM, 7x7, partner max 3 µM) | 0.781 | 0.325 | 0.421 | 0.661 | 0.913 | 1 | 0.562 | 0.3 | 0.491 | 0.352 | 0.559 | 0.268 | 0.889 | 0.289 | 1 | 0.203 | 0.582 | 0.855 | 0.562 | 0.238
CN(CCO)CC[C@H](CSc1ccccc1)Nc1ccc(S(=O)(=O)NC(=O)c2ccc(N3CCC([C@@H](O)c4ccccc4-c4ccc(Cl)cc4)CC3)cc2)cc1S(=O)(=O)C(F)(F)F [AZD4320] + CCN(CCO)CCCOc1ccc2c(Nc3cc(CC(=O)Nc4cccc(F)c4)[nH]n3)ncnc2c1 [AZD2811] (first compound max 1 µM, 7x7, partner max 1 µM) | 0.667 | 0.261 | 0.34 | 0.752 | 0.781 | 0.949 | 0.635 | 0.112 | 0.661 | 0.239 | 0.754 | 0.319 | 0.801 | 0.334 | 1 | 0.271 | 0.298 | 0.828 | 0.463 | 0.12
CN(CCO)CC[C@H](CSc1ccccc1)Nc1ccc(S(=O)(=O)NC(=O)c2ccc(N3CCC([C@@H](O)c4ccccc4-c4ccc(Cl)cc4)CC3)cc2)cc1S(=O)(=O)C(F)(F)F [AZD4320] + C[C@@H]1COCCN1C2=NC(=NC(=C2)C3(CC3)[S@](=N)(=O)C)C4=C5C=CNC5=NC=C4 [AZD6738] (first compound max 1 µM, 7x7, partner max 10 µM) | 0.891 | 0.438 | 0.494 | 0.498 | 0.692 | 0.994 | 0.936 | 0.628 | 0.979 | 0.304 | 0.708 | 0.871 | 0.908 | 0.878 | 1 | 0.466 | 0.647 | 0.964 | 0.84 | 0.275

Source: the supplement of paper PMC11061612
